From patent publication EP0595557A1, “New substituted azetidinones as anti-inflammatory and antidegenerative agents” (MERCK & CO. INC., priority 1992, dated 1994)

The compounds below were run against T1, Human Polymorphonuclear Leukocyte Elastase (Homo sapiens, UniProt P08246) (assay: Enzyme assay for inhibition of human polymorphonuclear leukocyte elastase via hydrolysis of Boc-AAPAN or Boc-AAPVN). Details: pH 7.5, second order rate constant for inactivation of the enzyme, expressed to the nearest thousand, read-out: Kobs/[I].
T1 construct: Crude extract of human polymorphonuclear leukocytes (PMN) containing elastase activity; from tissue; host or cells: human polymorphonuclear leukocytes (crude extract)
T1 sequence (P08246 30-267): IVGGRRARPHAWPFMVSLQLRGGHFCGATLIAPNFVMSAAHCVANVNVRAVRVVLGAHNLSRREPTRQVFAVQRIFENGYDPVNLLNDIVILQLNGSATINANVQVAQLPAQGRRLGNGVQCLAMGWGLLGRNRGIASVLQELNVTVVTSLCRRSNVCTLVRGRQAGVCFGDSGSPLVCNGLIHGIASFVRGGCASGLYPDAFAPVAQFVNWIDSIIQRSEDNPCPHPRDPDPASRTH
Assay type: biochemical
Method in brief: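 Crude human PMN extract as enzyme source, with 0.2 mM Boc-AAPAN in 0.05M TES buffer pH 7.5. Inhibitors in DMSO were added to substrate before the extract, and rate was followed as ΔOD/min at 410 mµ. Values are kobs/I, the second-order inactivation rate constant (per mole per second).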

| Structure (SMILES) | kinact/KI [M⁻¹ s⁻¹] |
| --- | --- |
| CCC[C@@H](NC(=O)N1C(=O)C(CC)(CC)[C@@H]1Oc1ccc(C(=O)N2CCC[C@H]2C(N)=O)cc1)c1ccc(C)cc1 [Compound 227] | 931000 |
| CCC[C@@H](NC(=O)N1C(=O)C(CC)(CC)[C@@H]1Oc1ccc(C(=O)N2CCCCC2CO)cc1)c1ccc(C)cc1 (some centres unmarked) [Compound 228] | 50000 |
| CCC[C@@H](NC(=O)N1C(=O)C(CC)(CC)[C@@H]1Oc1ccc(C(=O)N2CCC(N(C)C)C2)cc1)c1ccc(C)cc1 (some centres unmarked) [Compound 229] | 1.34e+06 |
| C=CCN(CCN(C)C(=O)c1ccc(O[C@@H]2N(C(=O)N[C@H](CCC)c3ccc(C)cc3)C(=O)C2(CC)CC)cc1)C(C)(C)C=C [Compound 231] | 925000 |
| CCC[C@@H](NC(=O)N1C(=O)C(CC)(CC)[C@@H]1Oc1ccc(C(=O)N(C)CCN(C)C2CCC(CC)CC2)cc1)c1ccc(C)cc1 (some centres unmarked) [Compound 232] | 2.48e+06 |
| CCC[C@@H](NC(=O)N1C(=O)C(CC)(CC)[C@@H]1Oc1ccc(C(=O)N2CCN(c3ccc(F)cc3)CC2)cc1)c1ccc(C)cc1 [Compound 243] | 7.49e+06 |
| CCC[C@@H](NC(=O)N1C(=O)C(CC)(CC)[C@@H]1Oc1ccc(C(=O)N2CCN(c3cccc(Cl)c3)CC2)cc1)c1ccc(C)cc1 [Compound 244] | 2.45e+06 |
| CCC[C@@H](NC(=O)N1C(=O)C(CC)(CC)[C@@H]1Oc1ccc(C(=O)N2CCN(c3ccccc3)CC2)cc1)c1ccc(C)cc1 [Compound 245] | 5.28e+06 |
| CCC[C@@H](NC(=O)N1C(=O)C(CC)(CC)[C@@H]1Oc1ccc(C(=O)N2CCN(Cc3ccccc3)CC2)cc1)c1ccc(C)cc1 [Compound 246] | 5.17e+06 |
| CCC[C@@H](NC(=O)N1C(=O)C(CC)(CC)[C@@H]1Oc1ccc(C(=O)N2CCNCC2)cc1)c1ccc(C)cc1 [Compound 247, [S-(R*,S*)]-2-[4-[[(4-Piperazin-1-yl)carbonyl]phenoxy] -((3,3-diethyl-N-[1-(4-methylphenyl)butyl]-4-oxo-1-azetidinecarboxamide] | 1.1e+06 |
| CCC[C@@H](NC(=O)N1C(=O)C(CC)(CC)[C@@H]1Oc1ccc(C(=O)N2CCN(C(C)C)CC2)cc1)c1ccc(C)cc1 [Compound 248] | 2.39e+06 |
| CCC[C@@H](NC(=O)N1C(=O)C(CC)(CC)[C@@H]1Oc1ccc(C(=O)N2CCN(CC(C)C)CC2)cc1)c1ccc(C)cc1 [Compound 249] | 2.48e+06 |
| CCC[C@@H](NC(=O)N1C(=O)C(CC)(CC)[C@@H]1Oc1ccc(C(=O)N2CCN(CC(=O)OCC)CC2)cc1)c1ccc(C)cc1 [Compound 250] | 1.57e+06 |
| CCC[C@@H](NC(=O)N1C(=O)C(CC)(CC)[C@@H]1Oc1ccc(C(=O)N2CCN(CC(=O)O)CC2)cc1)c1ccc(C)cc1 [Compound 251] | 1.95e+06 |
| CCC[C@@H](NC(=O)N1C(=O)C(CC)(CC)[C@@H]1Oc1ccc(C(=O)N2CCN(CC)CC2)cc1)c1ccc(C)cc1 [Compound 252] | 2.32e+06 |
| CCC[C@@H](NC(=O)N1C(=O)C(CC)(CC)[C@@H]1Oc1ccc(C(=O)N2CCN(CCC)CC2)cc1)c1ccc(C)cc1 [Compound 253] | 1.77e+06 |
| CCC[C@@H](NC(=O)N1C(=O)C(CC)(CC)[C@@H]1Oc1ccc(C(=O)N2CCN(c3ncccn3)CC2)cc1)c1ccc(C)cc1 [Compound 254] | 2.14e+06 |
| CCC[C@@H](NC(=O)N1C(=O)C(CC)(CC)[C@@H]1Oc1ccc(C(=O)N2CCN(CCOC(=O)NC)CC2)cc1)c1ccc(C)cc1 [Compound 255] | 2.55e+06 |
| CCC[C@@H](NC(=O)N1C(=O)C(CC)(CC)[C@@H]1Oc1ccc(C(=O)N2CCN(CCO)CC2)cc1)c1ccc(C)cc1 [Compound 256a, [S-(R*,S*)]-2-[4-[[(4-Hydroxyethyl)piperazin-1-yl]carbonyl]phenoxy]-((3,3-diethyl-N-[1-(methylphenyl)butyl]-4-oxo-1-azetidinecarboxamide] | 2e+06 |
| CCC[C@@H](NC(=O)N1C(=O)C(CC)(CC)[C@@H]1Oc1ccc(CC(N)=O)cc1)c1ccc2c(c1)OCO2 [Compound 257] | 2.34e+06 |
| CCC[C@@H](NC(=O)N1C(=O)C(CC)(CC)[C@@H]1Oc1ccc(CC(=O)N2CCOCC2)cc1)c1ccc2c(c1)OCO2 [Compound 258] | 1.78e+06 |
| CCC[C@@H](NC(=O)N1C(=O)C(CC)(CC)[C@@H]1Oc1ccc(CC(=O)N(C)CCN(C)C)cc1)c1ccc2c(c1)OCO2 [Compound 259] | 2.52e+06 |
| CCC[C@@H](NC(=O)N1C(=O)C(CC)(CC)[C@@H]1Oc1ccc(C(=O)N(C)CCN(C)C)cc1)c1ccc2c(c1)OCO2 [Compound 260] | 3.32e+06 |
| CCC[C@@H](NC(=O)N1C(=O)C(CC)(CC)[C@@H]1Oc1ccc(C(=O)N(CC)CC)cc1)c1ccc2c(c1)OCO2 [Compound 261] | 3.21e+06 |
| CCCCN(C)C(=O)c1ccc(O[C@@H]2N(C(=O)N[C@H](CCC)c3ccc4c(c3)OCO4)C(=O)C2(CC)CC)cc1 [Compound 262] | 3.12e+06 |
| CCC[C@@H](NC(=O)N1C(=O)C(CC)(CC)[C@@H]1Oc1ccc(C(=O)N2CCN(C)CC2)cc1)c1ccc2c(c1)OCO2 [Compound 263, [S-(R*,S*)]-2-[4-[[(4-Methyl)piperazin-1-yl]carbonyl]phenoxy]-((3,3-diethyl-N-[1-(3,4-methylenedioxyphenyl)butyl]-4-oxo-1-azetidinecarboxamide] | 3.8e+06 |

Other lines, results leading:

| kinact/KI [M⁻¹ s⁻¹] | Structure (SMILES) |
| --- | --- |
| 3.43e+06 | CCC[C@@H](NC(=O)N1C(=O)C(CC)(CC)[C@@H]1Oc1ccc(C(=O)N(C)CCN(C)Cc2ccccc2)cc1)c1ccc2c(c1)OCO2 [Compound 264] |
| 4.5e+06 | CCC[C@@H](NC(=O)N1C(=O)C(CC)(CC)[C@@H]1Oc1ccc(C(=O)N2CCN(C3CC3)CC2)cc1)c1ccc2c(c1)OCO2 [Compound 265, [S-(R*,S*)]-2-[4-[[(4-Cyclopropyl)piperazin-1-yl]carbonyl]phenoxy]-((3,3-diethyl-N-[1-(3,4-methylenedioxyphenyl)butyl]-4-oxo-1-azetidinecarboxamide] |
| 3.25e+06 | CCC[C@@H](NC(=O)N1C(=O)C(CC)(CC)[C@@H]1Oc1ccc(C(=O)N2CCNCC2)cc1)c1ccc2c(c1)OCO2 [Compound 265a, [S-(R*,S*)]-2-[4-[[(4-Piperazin-1-yl)carbonyl]phenoxy] -((3,3-diethyl-N-[1-(3,4-methylenedioxyphenyl)butyl]-4-oxo-1-azetidinecarboxamide] |
| 4.8e+06 | CCC[C@@H](NC(=O)N1C(=O)C(CC)(CC)[C@@H]1Oc1ccc(C(=O)N2CCN(CCO)CC2)cc1)c1ccc2c(c1)OCO2 [Compound 265c, [S-(R*,5*)]-2-[4-[[(4-Hydroxyethyl)piperazin-1-yl]carbonyl]phenoxy]-((3,3-diethyl-N-[1-(3,4-methylenedioxyphenyl)butyl]-4-oxo-1-azetidinecarboxamide] |
| 3.7e+06 | CCC[C@@H](NC(=O)N1C(=O)C(CC)(CC)[C@@H]1Oc1ccc(C(=O)N2CCOCC2)cc1)c1ccc2c(c1)OCO2 [Compound 265d] |
| 169000 | CCC[C@@H](NC(=O)N1C(=O)C(CC)(CC)[C@@H]1Oc1ccc(CC(=O)N2CCOCC2)cc1)c1cccc(C(=O)N2CCOCC2)c1 [Compound 266] |
| 334000 | CCC[C@@H](NC(=O)N1C(=O)C(CC)(CC)[C@@H]1Oc1ccc(CC(=O)N(CC)CC)cc1)c1cccc(C(=O)N2CCOCC2)c1 [Compound 267] |
| 142000 | CCC[C@@H](NC(=O)N1C(=O)C(CC)(CC)[C@@H]1Oc1ccc(CC(=O)N(C)CCN(C)C)cc1)c1cccc(C(=O)N2CCOCC2)c1 [Compound 268] |
| 637000 | CCC[C@@H](NC(=O)N1C(=O)C(CC)(CC)[C@@H]1Oc1ccc(CC(N)=O)cc1)c1ccc(C)c(C(=O)N2CCOCC2)c1 [Compound 269] |
| 740000 | CCC[C@@H](NC(=O)N1C(=O)C(CC)(CC)[C@@H]1Oc1ccc(CC(=O)N(CC)CC)cc1)c1ccc(C)c(C(=O)N2CCOCC2)c1 [Compound 270] |
| 826000 | CCC[C@@H](NC(=O)N1C(=O)C(CC)(CC)[C@@H]1Oc1ccc(CC(=O)N(CCC)CCC)cc1)c1ccc(C)c(C(=O)N2CCOCC2)c1 [Compound 271] |
| 2.42e+06 | CCC[C@@H](NC(=O)N1C(=O)C(CC)(CC)[C@@H]1Oc1ccc(C(=O)N(C)CCN(C)C)cc1)c1ccc(CC)c(C(=O)N2CCOCC2)c1 [Compound 272] |
| 3.26e+06 | CCCCN(C)C(=O)c1ccc(O[C@@H]2N(C(=O)N[C@H](CCC)c3ccc(CC)c(C(=O)N4CCOCC4)c3)C(=O)C2(CC)CC)cc1 [Compound 273] |
| 430000 | CCC[C@@H](NC(=O)N1C(=O)C(CC)(CC)[C@@H]1Oc1ccc(CC(N)=O)cc1)c1ccc(C(=O)N2CCOCC2)cc1 [Compound 274] |
| 290000 | CCC[C@@H](NC(=O)N1C(=O)C(CC)(CC)[C@@H]1Oc1ccc(CC(=O)N(C)CCN(C)C)cc1)c1ccc(C(=O)N2CCOCC2)cc1 [Compound 275] |
| 440000 | CCC[C@@H](NC(=O)N1C(=O)C(CC)(CC)[C@@H]1Oc1ccc(CC(=O)OC)cc1)c1ccc(C(=O)N2CCOCC2)cc1 [Compound 276] |
| 548000 | CCC[C@@H](NC(=O)N1C(=O)C(CC)(CC)[C@@H]1Oc1ccc(C(=O)N(C)CCN(C)C)cc1)c1ccc(C(=O)N2CCOCC2)cc1 [Compound 277] |
| 135000 | CCC[C@@H](NC(=O)N1C(=O)C(CC)(CC)[C@@H]1Oc1ccc(C(=O)OCCN(C)C)cc1)c1ccc(C(=O)N2CCOCC2)cc1 [Compound 278] |
| 566000 | CCC[C@@H](NC(=O)N1C(=O)C(CC)(CC)[C@@H]1Oc1ccc(C(=O)N(CC)CC)cc1)c1ccc(C(=O)N2CCOCC2)cc1 [Compound 279] |
| 577000 | CCC[C@@H](NC(=O)N1C(=O)C(CC)(CC)[C@@H]1Oc1ccc(C(=O)N2CCOCC2)cc1)c1ccc(C(=O)N2CCOCC2)cc1 [Compound 280] |
| 62000 | CCC[C@@H](NC(=O)N1C(=O)C(CC)(CC)[C@@H]1Oc1ccc(CC(=O)N2CCOCC2)cc1)c1ccc(C(=O)O)cc1 [Compound 281] |
